# Reference: patent US20120029187A1, “HALOALKYLSULFONANILIDE DERIVATIVE” (Nissan Chemical Industries, Ltd., priority 2009, published 2012)
# Experiments:
# Format in all cases: in vivo
# redroot pigweed [1] = assay: Test Example 4: herbicidal effect in foliage treatment; details: dose 3.2 g/a, three weeks after application
# Summary of the method: (§1)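 Herbicidal effect was rated on an evaluation scale three weeks after treatment. Plants had been raised 14 days at 25 to 30° C in sterilized diluvial soil, then received foliar sprays of emulsifiable concentrate diluted in water at predetermined doses expressed as g per are.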
# Italian ryegrass [2] = assay: as above; details: dose 3.2 g/a, three weeks after application
# Summary of the method: as §1
# giant foxtail [3] = assay: as above; details: dose 3.2 g/a, three weeks after application
# Summary of the method: as §1
# common lambsquater [4] = assay: as above; details: dose 3.2 g/a, three weeks after application
# Summary of the method: as §1
# barnyardgrass [5] = assay: as above; details: dose 3.2 g/a, three weeks after application
# Summary of the method: as §1
# beadstraw [6] = assay: as above; details: dose 3.2 g/a, three weeks after application
# Summary of the method: as §1
# posumbu knotweed [7] = assay: as above; details: dose 3.2 g/a, three weeks after application
# Summary of the method: as §1
# velvetleaf [8] = assay: as above; details: dose 3.2 g/a, three weeks after application
# Summary of the method: as §1
# common chickweed [9] = assay: as above; details: dose 3.2 g/a, three weeks after application
# Summary of the method: as §1
# common ragweed [10] = assay: as above; details: dose 3.2 g/a, three weeks after application
# Summary of the method: as §1
# water foxtail [11] = assay: as above; details: dose 3.2 g/a, three weeks after application
# Summary of the method: as §1
# large crabgrass [12] = assay: as above; details: dose 3.2 g/a, three weeks after application
# Summary of the method: as §1
# ducksalad [13] = assay: Test Example 2: herbicidal effects during the vegetation period under submerged conditions; details: treatment during the vegetation period under submerged conditions; dose 2.52 g/a
# Summary of the method: (§2)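 Barnyardgrass, bulrush and ducksalad were co-sown in alluvial soil flooded to 4 cm and grown in a greenhouse at 25 to 30° C. At the 1- or 2-leaf stage, water-diluted emulsifiable concentrates went onto the water surface at set doses (g/a). Herbicidal effect was scored three weeks later on a graded scale.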
# barnyardgrass [14] = assay: as above; details: treatment during the vegetation period under submerged conditions; dose 2.52 g/a
# Summary of the method: as §2
# bulrush [15] = assay: as above; details: treatment during the vegetation period under submerged conditions; dose 2.52 g/a
# Summary of the method: as §2
# ducksalad [16] = assay: Test Example 1: herbicidal effects in preemergence treatment under submerged conditions; details: dose 2.52 g/a
# Summary of the method: (§3)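 Submerged conditions, 4 cm water over alluvial soil. Weeds sown and 2.5-leaf rice transplanted; compound applied preemergence to water surface, doses in g per are. Greenhouse, 25 to 30° C., three weeks, then 0–5 mortality rating.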
# barnyardgrass [17] = assay: as above; details: dose 2.52 g/a
# Summary of the method: as §3
# bulrush [18] = assay: as above; details: dose 2.52 g/a
# Summary of the method: as §3
# redroot pigweed [19] = assay: Test Example 3: herbicidal effects in soil treatment; details: dose 3.2 g/a
# Summary of the method: (§4)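 Seeds were sown in sterilized diluvial soil and covered with about 1.5 cm of soil. Compounds, formulated as emulsifiable concentrates and diluted with water, were sprayed evenly over the soil surface at set doses in g/a. Herbicidal effect was scored on a rating scale three weeks later.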
# Italian ryegrass [20] = assay: as above; details: dose 3.2 g/a
# Summary of the method: as §4
# giant foxtail [21] = assay: as above; details: dose 3.2 g/a
# Summary of the method: as §4
# common lambsquater [22] = assay: as above; details: dose 3.2 g/a
# Summary of the method: as §4
# barnyardgrass [23] = assay: as above; details: dose 3.2 g/a
# Summary of the method: as §4
# beadstraw [24] = assay: as above; details: dose 3.2 g/a
# Summary of the method: as §4
# posumbu knotweed [25] = assay: as above; details: dose 3.2 g/a
# Summary of the method: as §4
# velvetleaf [26] = assay: as above; details: dose 3.2 g/a
# Summary of the method: as §4
# common chickweed [27] = assay: as above; details: dose 3.2 g/a
# Summary of the method: as §4
# common ragweed [28] = assay: as above; details: dose 3.2 g/a
# Summary of the method: as §4
# water foxtail [29] = assay: as above; details: dose 3.2 g/a
# Summary of the method: as §4
# large crabgrass [30] = assay: as above; details: dose 3.2 g/a
# Summary of the method: as §4
# transplanted rice = assay: Test Example 1: preemergence treatment under submerged conditions, effect on crop; details: dose 2.52 g/a
# Summary of the method: as §3
SMILES,"K: redroot pigweed, herbicidal effect (redroot pigweed [1])","H: Italian ryegrass, herbicidal effect (Italian ryegrass [2])","E: giant foxtail, herbicidal effect (giant foxtail [3])","L: common lambsquater, herbicidal effect (common lambsquater [4])","A: barnyardgrass, herbicidal effect (barnyardgrass [5])","M: posumbu knotweed, herbicidal effect (posumbu knotweed [7])","I: velvetleaf, herbicidal effect (velvetleaf [8])","N: common chickweed, herbicidal effect (common chickweed [9])","J: common ragweed, herbicidal effect (common ragweed [10])","G: water foxtail, herbicidal effect (water foxtail [11])","D: large crabgrass, herbicidal effect (large crabgrass [12])","C: ducksalad, herbicidal effect (evaluation scale 0-5) (ducksalad [13])","A: barnyardgrass, herbicidal effect (evaluation scale 0-5) (barnyardgrass [14])","B: bulrush, herbicidal effect (evaluation scale 0-5) (bulrush [15])","C: ducksalad, herbicidal effect (evaluation scale 0-5) (ducksalad [16])","A: barnyardgrass, herbicidal effect (evaluation scale 0-5) (barnyardgrass [17])","B: bulrush, herbicidal effect (evaluation scale 0-5) (bulrush [18])","K: redroot pigweed, herbicidal effect (evaluation scale 0-5) (redroot pigweed [19])","H: Italian ryegrass, herbicidal effect (evaluation scale 0-5) (Italian ryegrass [20])","E: giant foxtail, herbicidal effect (evaluation scale 0-5) (giant foxtail [21])",other results
CCOC(=O)N(c1ccccc1CN1COC(C)(c2cc(Cl)nn2C)CC1=O)S(=O)(=O)C(F)(F)F (stereo not shown) [II-60],0 (mortality of less than 5% (almost ineffective)),3 (mortality of at least 40% and less than 70%),3 (mortality of at least 40% and less than 70%),2 (mortality of at least 20% and less than 40%),4 (mortality of at least 70% and less than 90%),2 (mortality of at least 20% and less than 40%),3 (mortality of at least 40% and less than 70%),4 (mortality of at least 70% and less than 90%),3 (mortality of at least 40% and less than 70%),5 (mortality of 90% or above (nearly complete death)),3 (mortality of at least 40% and less than 70%),5 (mortality of 90% or above (nearly complete death)),5 (mortality of 90% or above (nearly complete death)),5 (mortality of 90% or above (nearly complete death)),5 (mortality of 90% or above (nearly complete death)),5 (mortality of 90% or above (nearly complete death)),5 (mortality of 90% or above (nearly complete death)),4 (mortality of at least 70% and less than 90%),3 (mortality of at least 40% and less than 70%),5 (mortality of 90% or above (nearly complete death)),"O: beadstraw, herbicidal effect (beadstraw [6]): 4 (mortality of at least 70% and less than 90%); L: common lambsquater, herbicidal effect (evaluation scale 0-5) (common lambsquater [22]): 1 (mortality of at least 5% and less than 20%); A: barnyardgrass, herbicidal effect (evaluation scale 0-5) (barnyardgrass [23]): 5 (mortality of 90% or above (nearly complete death)); O: beadstraw, herbicidal effect (evaluation scale 0-5) (beadstraw [24]): 0 (mortality of less than 5% (almost ineffective)); M: posumbu knotweed, herbicidal effect (evaluation scale 0-5) (posumbu knotweed [25]): 3 (mortality of at least 40% and less than 70%); I: velvetleaf, herbicidal effect (evaluation scale 0-5) (velvetleaf [26]): 4 (mortality of at least 70% and less than 90%); N: common chickweed, herbicidal effect (evaluation scale 0-5) (common chickweed [27]): 4 (mortality of at least 70% and less than 90%); J: common ragweed, herbicidal effect (evaluation scale 0-5) (common ragweed [28]): 1 (mortality of at least 5% and less than 20%); G: water foxtail, herbicidal effect (evaluation scale 0-5) (water foxtail [29]): 5 (mortality of 90% or above (nearly complete death)); D: large crabgrass, herbicidal effect (evaluation scale 0-5) (large crabgrass [30]): 4 (mortality of at least 70% and less than 90%); a: transplanted rice, effect on crop (evaluation scale 0-5) (transplanted rice): 0 (mortality of less than 5% (almost ineffective))"
CC1(C2CC2)CC(=O)N(Cc2ccccc2NS(=O)(=O)C(F)(F)F)CO1 (stereo not shown) [II-44],0 (mortality of less than 5% (almost ineffective)),4 (mortality of at least 70% and less than 90%),3 (mortality of at least 40% and less than 70%),1 (mortality of at least 5% and less than 20%),4 (mortality of at least 70% and less than 90%),1 (mortality of at least 5% and less than 20%),3 (mortality of at least 40% and less than 70%),4 (mortality of at least 70% and less than 90%),2 (mortality of at least 20% and less than 40%),4 (mortality of at least 70% and less than 90%),2 (mortality of at least 20% and less than 40%),5 (mortality of 90% or above (nearly complete death)),5 (mortality of 90% or above (nearly complete death)),5 (mortality of 90% or above (nearly complete death)),5 (mortality of 90% or above (nearly complete death)),5 (mortality of 90% or above (nearly complete death)),5 (mortality of 90% or above (nearly complete death)),0 (mortality of less than 5% (almost ineffective)),5 (mortality of 90% or above (nearly complete death)),4 (mortality of at least 70% and less than 90%),"L: common lambsquater, herbicidal effect (evaluation scale 0-5) (common lambsquater [22]): 0 (mortality of less than 5% (almost ineffective)); A: barnyardgrass, herbicidal effect (evaluation scale 0-5) (barnyardgrass [23]): 5 (mortality of 90% or above (nearly complete death)); O: beadstraw, herbicidal effect (evaluation scale 0-5) (beadstraw [24]): 0 (mortality of less than 5% (almost ineffective)); M: posumbu knotweed, herbicidal effect (evaluation scale 0-5) (posumbu knotweed [25]): 3 (mortality of at least 40% and less than 70%); I: velvetleaf, herbicidal effect (evaluation scale 0-5) (velvetleaf [26]): 3 (mortality of at least 40% and less than 70%); N: common chickweed, herbicidal effect (evaluation scale 0-5) (common chickweed [27]): 2 (mortality of at least 20% and less than 40%); J: common ragweed, herbicidal effect (evaluation scale 0-5) (common ragweed [28]): 3 (mortality of at least 40% and less than 70%); G: water foxtail, herbicidal effect (evaluation scale 0-5) (water foxtail [29]): 5 (mortality of 90% or above (nearly complete death)); D: large crabgrass, herbicidal effect (evaluation scale 0-5) (large crabgrass [30]): 4 (mortality of at least 70% and less than 90%); a: transplanted rice, effect on crop (evaluation scale 0-5) (transplanted rice): 3 (mortality of at least 40% and less than 70%)"
